Data taken from PMC12615518, “Discovery of CRBN-recruiting PROTAC degraders of the METTL3-METTL14 complex” (Medicinal Chemistry Research, 2025).
“Also recorded” adds a separate entry of the source.

Key:
[1] = test system: MOLM13 cells; experiment: Cell viability assay (CCK-8) in MOLM13 cells; type: cell-based, human; conditions: CCK-8, normalized to vehicle
Experimental: (§1) We proceeded to evaluate the cytotoxic activities of ZW30441 in AML cell lines by treating MOLM13 and MV4-11 cells with ZW30441 in increasing doses for 72 h.
Cell Lines and Culture Conditions: The human acute myeloid leukemia (AML) cell lines MOLM13 and MV4.11, as well as the HEK 293T epithelial kidney cell line, were obtained from the American Type Culture Collection (ATCC, USA). AML cells were maintained in RPMI-1640 medium (Gibco, USA) supplemented with 10% fetal bovine serum (FBS) and 1% penicillin-streptomycin (Sigma, Germany). HEK 293T cells were cultured in complete Dulbecco’s Modified Eagle Medium (DMEM) containing 10% FBS and 1% penicillin-streptomycin (Sigma). All cell lines were maintained under standard conditions in a humidified atmosphere at 37 °C with 5% CO₂.
Cell Viability Assay: AML cells were seeded in 96-well plates at a density of 5,000 cells per well and treated with varying concentrations of ZW30441 or vehicle (dimethyl sulfoxide, DMSO). Each condition was performed in triplicate. After the treatment period, cell viability was measured using the Cell Counting Kit-8 (CCK-8; APExBIO, USA, Cat# K1018) according to the manufacturer’s instructions. Absorbance was recorded at 450 nm using a SPECTROstar microplate reader (BMG LABTECH, USA).

[2] = target: T1, METTL3-METTL14 complex (Homo sapiens, UniProt Q86U44); experiment: Washout experiment in MV4-11 cells, Western blot; type: cell-based; conditions: 1 µM for 20 h, then drug withdrawal 0 to 24 h
T1 construct: endogenous in cells; host or cells: MV4-11 human AML cells, ATCC
Experimental: To further characterize this compound, MV4-11 AML cells were treated with ZW30441 across a range of concentrations for 24 h.
Fig. 3 ZW30441 induced degradation of METTL3 and METTL14 in a dose- and time-dependent manner. […] METTL3 and METTL14 protein levels were normalized against ACTIN and plotted for DC50 and Dmax determination (right). B The levels of METTL3 and METTL14 protein in MV4-11 cells were analyzed by Western blots after the treatment of 1 µM of ZW30441 for various durations. C METTL3 and METTL14 protein levels were analyzed by Western blots in MV4-11 cells after treatment with 1 µM of ZW30441 for 20 h followed by drug withdrawal and cultured without ZW30441 for 0 to 24 h, as indicated TEXT PRINTED IN THE PICTURE: (A) ZW30441: METTL3 levels: DC50=0.44 uM; METTL3 levels: Dmax= 68.7%; METTL14 levels: DC50=0.13 uM; METTL14 levels: Dmax= 74.1% DOUBTS OF THE COPYIST ABOUT THIS PICTURE: ZW30441, panel A, axis title of the right plot: last letter unclear, 'METTL14 levels' or 'METTL14 levela'
Western Blot Analysis: Following treatment, total cellular proteins were extracted using RIPA buffer (Auragene, Changsha, China). Equal amounts of protein were separated by 12% SDS-PAGE and transferred onto PVDF membranes (Thermo Fisher, USA, LC2002). […] Band intensities were quantified using ImageJ software and normalized to ACTIN as a loading control. Data was analyzed using GraphPad Prism 9. […]

[3] = target: T2, METTL14 (Homo sapiens, UniProt Q9HCE5); experiment: Immunoblotting (Western blot) degradation of METTL14 in MV4-11 cells; type: cell-based
T2 construct: Following treatment, total cellular proteins were extracted using RIPA buffer; endogenous in cells; host or cells: MV4-11 (MV4.11) human AML cells, ATCC
Experimental: All cell lines were maintained under standard conditions in a humidified atmosphere at 37 °C with 5% CO₂.
Western Blot Analysis: Following treatment, total cellular proteins were extracted using RIPA buffer (Auragene, Changsha, China). […] After washing, membranes were incubated with horseradish peroxidase (HRP)-conjugated secondary antibodies (anti-rabbit or anti-mouse IgG; 1:5000) for 2 hours at room temperature. Protein bands were visualized using an enhanced chemiluminescence (ECL) detection kit (Amersham Pharmacia), following the manufacturer's protocol. Band intensities were quantified using ImageJ software and normalized to ACTIN as a loading control. Data was analyzed using GraphPad Prism 9.

[4] = target: METTL3 (Homo sapiens, UniProt Q86U44); experiment: Mechanism study: METTL3 Western blot in HEK293T cells after pretreatment with proteasome inhibitors or CRBN ligand; type: cell-based; design: endogenous in cells; conditions: then ZW30441 2.5 µM for 24 h
Experimental: We next explored the mechanisms of ZW30441-induced METTL3-METTL14 degradation. HEK293T cells were pretreated with the proteasome inhibitors bortezomib (0.1 µM) or MG132 (1 µM) for 2 h before ZW30441 (2.5 µM) administration (Fig. 4A).
Fig. 4 ZW30441 induced METTL3-METTL14 complex degradation through the ubiquitin-proteasome system and affected the survival of human AML cell lines. A Western blot analysis of METTL3 expression in HEK293T cells after pretreatment with the CRBN ligand pomalidomide (10 µM) or the proteasome inhibitors bortezamib (0.1 µM) or MG132 (1 µM) for 2 h, followed by treatment with ZW30441 (2.5 µM) for 24 h (left). Western blot analysis of METTL3 and METTL14 levels in MV4-11 cells after treatment with UHZ2, ZW30441, and the negative control ZW30441NC at the indicated concentration for 24 h (right). B Cell viability study of ZW30441 in MOLM13 and MV4-11 cell lines (left). […]
Western Blot Analysis: Following treatment, total cellular proteins were extracted using RIPA buffer (Auragene, Changsha, China). […] Band intensities were quantified using ImageJ software and normalized to ACTIN as a loading control. Data was analyzed using GraphPad Prism 9. Degradation efficiency was evaluated by calculating DC₅₀, the drug concentration required to reduce target protein levels by 50%, and Dₘₐₓ, the maximum level of degradation observed across all tested concentrations.

[5] = test system: MV4-11 cells; experiment: Cell proliferation assay in MV4-11 cells; type: cell-based, human; conditions: 5 µM, 4-day period
Experimental: as §1
Cell Proliferation Assay: To assess cell growth, 1×10⁵ cells were seeded per well in 24-well plates in triplicate and treated with 5 µM concentrations of the test compounds. The culture medium containing the compounds was refreshed every 48 hours, and cell densities were maintained below 1×10⁶ cells/mL through periodic dilution. Cell numbers were measured every other day over a 4-day period using a DS-11 automated cell counter (DeNovix, USA).

T2 sequence (Q9HCE5 whole entry): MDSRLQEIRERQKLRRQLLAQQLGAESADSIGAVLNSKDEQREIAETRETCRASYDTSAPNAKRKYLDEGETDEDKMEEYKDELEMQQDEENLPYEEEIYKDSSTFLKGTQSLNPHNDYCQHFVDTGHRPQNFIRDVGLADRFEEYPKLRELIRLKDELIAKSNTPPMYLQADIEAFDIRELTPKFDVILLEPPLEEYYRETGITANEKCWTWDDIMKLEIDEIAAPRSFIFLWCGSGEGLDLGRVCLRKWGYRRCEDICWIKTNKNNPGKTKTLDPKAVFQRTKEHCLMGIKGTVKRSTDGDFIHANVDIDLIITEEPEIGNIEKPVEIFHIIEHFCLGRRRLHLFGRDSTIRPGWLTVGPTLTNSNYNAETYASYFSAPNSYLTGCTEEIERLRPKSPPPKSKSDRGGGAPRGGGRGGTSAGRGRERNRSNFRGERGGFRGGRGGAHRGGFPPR
T2 sequence (Q86U44 2-580 partner): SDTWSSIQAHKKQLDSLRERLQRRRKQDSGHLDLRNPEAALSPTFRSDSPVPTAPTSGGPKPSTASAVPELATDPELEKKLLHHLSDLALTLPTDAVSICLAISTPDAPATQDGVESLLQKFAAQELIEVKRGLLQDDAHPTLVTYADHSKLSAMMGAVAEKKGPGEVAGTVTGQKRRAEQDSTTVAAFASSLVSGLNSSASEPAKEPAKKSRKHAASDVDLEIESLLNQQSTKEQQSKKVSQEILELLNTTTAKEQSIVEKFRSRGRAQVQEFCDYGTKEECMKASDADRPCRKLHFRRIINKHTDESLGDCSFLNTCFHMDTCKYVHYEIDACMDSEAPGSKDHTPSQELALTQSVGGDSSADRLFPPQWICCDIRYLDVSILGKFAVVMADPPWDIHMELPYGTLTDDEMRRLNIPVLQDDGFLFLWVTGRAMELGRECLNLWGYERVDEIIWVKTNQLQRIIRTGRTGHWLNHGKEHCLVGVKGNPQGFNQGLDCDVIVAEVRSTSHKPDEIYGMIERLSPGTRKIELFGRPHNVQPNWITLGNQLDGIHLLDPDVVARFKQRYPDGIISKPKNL
Sequence of METTL3 (Q86U44 2-580 limits assumed): as the sequence (Q86U44 2-580 partner) above
Sequence of METTL3 (Q9HCE5 whole entry partner): as the sequence (Q9HCE5 whole entry) above
T1 sequence (Q86U44 2-580 limits assumed): as the sequence (Q86U44 2-580 partner) above
T1 sequence (Q9HCE5 whole entry partner): as the sequence (Q9HCE5 whole entry) above

duration of degradation after removal of compound (washout) [2]: around 24 h
Dmax ([3]; MV4-11, MV4-11 cells, 24 h): 65%
% reduction in MV4-11 cells, 0.3 µM, METTL14 ([3]; MV4-11 cells, 0.3 µM, 24 h, immunoblotting, nd = no degradation): 56%
% reduction in MV4-11 cells, 1.0 µM, METTL14 ([3]; MV4-11 cells, 1.0 µM, 24 h, immunoblotting, nd = no degradation): 77%
DC50 ([3]; MV4-11 cells, 24 h, Western blot normalized against ACTIN): 0.13 µM
time of maximum degradation of METTL14 ([3]; MV4-11 cells, time course at 1 µM): 20 h
SMILES: CC1(C)CCN(Cc2cc(F)c(N3CC(=O)NC4(CCN(c5cc(NCCCCCCCCCC(=O)N6CCN(c7ccc8c(c7)CN(C7CCC(=O)NC7=O)C8=O)CC6)ncn5)CC4)C3)cc2F)CC1 (stereo not drawn) [Compound 4j, 3-(5-(4-(10-((6-(4-(4-((4,4-dimethylpiperidin-1-yl)methyl)-2,5-difluorophenyl)-2-oxo-1,4,9-triazaspiro[5.5]undecan-9-yl)pyrimidin-4-yl)amino)decanoyl)piperazin-1-yl)-1-oxoisoindolin-2-yl)piperidine-2,6-dione]
EC50 ([1]; 72 h, listed as ZW30441): 1.02 µM
EC50 ([1]; Homo sapiens, MOLM-13, 72 h): 1.02 µM
METTL3 degradation after pretreatment with proteasome inhibitors ([4]; bortezomib (0.1 µM) or MG132 (1 µM) for 2 h): effectively blocked; also recorded: abrogated
METTL3 degradation after pretreatment with CRBN ligand pomalidomide ([4]; pomalidomide 10 µM for 2 h): significantly reduced; also recorded: abrogated
anti-proliferation activity compared to STM2457 and UZH2 [5]: enhanced cytotoxicity
anti-proliferation activity compared to STM2457 and UZH2 ([5]; listed as ZW30441): more potent anti-proliferation activity; also recorded: superior cellular activity
